Assay results as given in PubChem BioAssay (NCI).
Values joined by “and” are separate entries in the source; they are usually repeats but may differ in a detail not shown here. Identical values can stand only once.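 1) Cells in 96-well plates. 2) Compound, 48 h, 5 concentrations. 3) Linear interpolation between surrounding doses. 4) Unreached endpoint = highest concentration. The concentration for 50% growth inhibition is given as GI50. At the TGI there is no net growth.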

Test system: MDA-MB-468 breast
Assay: inhibition of tumour cell growth, NCI panel, 48 h

C=CCc1c2c(c(OC)c3ccoc13)C(=O)/C(=C/c1ccccc1OC)O2
GI50: 2.46 µM | TGI: 7.85 µM

O=S(=O)(NC1CC2CCC1C2)c1ccc2c(c1)C(=NO)c1cc(S(=O)(=O)NC3CC4CCC3C4)ccc1-2 (stereo not drawn)
GI50: 0.327 µM | TGI: 1.09 µM

COC1(C(=O)N[C@@H](C)c2ccc(-n3cc(F)cn3)nc2)CCC(c2nc(C)cc(Nc3cc(C)[nH]n3)n2)CC1 (stereo partly drawn)
GI50: 1.98 µM | TGI: 6.96 µM

CN1CCN(CCc2cccc(C(=O)c3cnn(-c4ccc(F)cc4)c3N)c2)CC1
GI50: > 25 µM | TGI: > 25 µM

N#Cc1cnc2cc(OC[C@H](O)CO)c(NC(=O)CC3CSSC3)cc2c1Nc1ccc(OCc2cccc(F)c2)c(Cl)c1
GI50: 0.118 µM | TGI: 0.363 µM

COC(=O)[C@]12CC[C@@H](C)[C@H](C)[C@@H]1C1=CC[C@@H]3[C@@]4(C)C[C@@H](OC(C)=O)[C@H](O)[C@@](C)(COC(C)=O)[C@@H]4[C@H](O)C[C@@]3(C)[C@]1(C)CC2
GI50: 2.33 µM | TGI: 7.27 µM

COC(=O)[C@@H](C)C[C@H](Cc1ccccc1)NC(=O)c1nc([C@@H](C[C@H](C(C)C)N(C)C(=O)[C@@H](NC(=O)[C@H]2CCCCN2C)C(C)C)OC(C)=O)sc1C
GI50: < 0.00167 µM | TGI: > 16.7 µM

COC(=O)/C=C/C=C(c1ccccc1)c1ccccc1
GI50: 3.47 µM | TGI: 18.7 µM

COc1cc(C2c3cc4c(cc3OC(N3CCCC3)C2C)OCO4)cc(OC)c1OC (stereo not drawn)
GI50: 0.416 µM | TGI: 54.8 µM

CNC(=O)n1ccc2cc(Oc3ccnc(NC(=O)c4ccc(C5CCN(CCO)CC5)cc4)c3)c(OCCOC)cc21
GI50: 1.99 µM | TGI: 4.22 µM

O=C(CCCCCCNC(=O)C(O)(O)C(F)(F)F)Nc1ccc(-c2ccccc2)cc1
GI50: 0.861 µM | TGI: 3.1 µM

CCCCCn1c(=N)n(CC(O)COc2cccc(C)c2)c2ccccc21 (stereo not drawn)
GI50: 2.38 µM | TGI: 5.29 µM

COc1ccc2c(c1)O/C(=C\c1cccc(OCC(=O)Nc3nc4c(s3)CCCC4)c1)C2=O
GI50: 1.71 µM | TGI: 48.4 µM

C[C@@H](C(=O)Nc1ccc(Cl)cc1)C1CCC(c2ccnc3ccc(F)cc23)CC1 (stereo partly drawn)
GI50: 2.7 µM | TGI: 14.1 µM

CNC(=O)c1cncc(/C=C/c2ccccc2C)c1
GI50: > 25 µM | TGI: > 25 µM

ClCCn1c(CCl)nc2ccc(Cl)cc21
GI50: 1.68 µM | TGI: 3.42 µM

COc1cc(Cl)cc(-c2nn(C(=O)NCCN3CCOCC3)cc2-c2ccncc2)c1
GI50: 2 µM | TGI: 11.5 µM

COc1c(CCC[P+](c2ccccc2)(c2ccccc2)c2ccccc2)cc2c(c1OC)OCO2
GI50: 0.256 µM | TGI: 1.18 µM

CCN1C(=O)N(CC)C2C1NN=c1s/c(=C\c3cccnc3)c(=O)n12 (stereo not drawn)
GI50: 0.363 µM | TGI: > 100 µM

Cc1ccc(/C=C2\CN(C(=O)OC(C)(C)C)C/C(=C\c3ccc(C)cc3)C2=O)cc1
GI50: 0.0878 µM | TGI: > 100 µM

CC(C)(C)C[C@H]1NC(C(=O)NCC[C@H](O)CO)[C@H](c2cccc(Cl)c2)[C@@]12C(=O)Nc1cc(Cl)c(F)cc12 (stereo partly drawn)
GI50: 12.4 µM | TGI: 27.3 µM

Nc1c(C(=O)Nc2cccc([N+](=O)[O-])c2)sc2nc3c(cc12)C(O)CCC3 (stereo not drawn)
GI50: 2.11 µM | TGI: > 100 µM

CC1SC(c2c(Cl)cccc2Cl)N(NC(=O)c2[nH]c3ccc(F)cc3c2-c2ccccc2)C1=O (stereo not drawn)
GI50: 3.72 µM | TGI: 29.9 µM

CCN(CC)c1ccc(C(=C2C=CC(=[N+](CC)Cc3cccc(S(=O)(=O)O)c3)C=C2)c2ccc(N(CC)Cc3cccc(S(=O)(=O)O)c3)cc2)cc1
GI50: 2.58 µM | TGI: 15.9 µM

Cc1[c-]onc1C.Cc1[c-]onc1C.[Ag].[Ag].[NH-]S(=O)(=O)c1ccc(N=Nc2cc(N=Nc3ccc(S([NH-])(=O)=O)cc3)c3c(NC(=O)C(Cl)Cl)cccc3c2OC(=O)C(Cl)Cl)cc1
GI50: 1.92 µM | TGI: 8.48 µM

Cc1ccc2c(ccc3c[n+]4c5ccccc5ccc4n32)c1
GI50: 0.541 µM | TGI: 2.47 µM

CCN(Cc1ccc(F)c(F)c1)c1ccc(CO)c(Cl)c1
GI50: 0.0162 µM | TGI: 0.0438 µM

CCN(CC)S(=O)(=O)c1ccc(OC)c(Nc2ncc(-c3ccccc3)o2)c1
GI50: > 10.4 µM | TGI: > 25 µM

O=C1OC(=O)C(c2c[nH]c3ccccc23)=C1c1c[nH]c2ccccc12
GI50: > 19.3 µM | TGI: > 25 µM

CC(C)NC[C@@H](C(=O)N1CCN(c2ncnc3c2[C@H](C)C[C@H]3O)CC1)c1ccc(Cl)cc1
GI50: 0.112 µM and 0.134 µM | TGI: 0.582 µM and 2.19 µM

COc1cccc(/C=C/C(=O)c2cccc(Nc3nc(Nc4ccccc4)nc(Nc4ccccc4)n3)c2)c1
GI50: 2.5 µM | TGI: 11.3 µM

O=CNc1c(Cl)cc2c(c1Cl)Cc1cc([N+](=O)[O-])ccc1-2
GI50: 0.317 µM | TGI: 1.27 µM

C=C1C(=O)O[C@H]2[C@H]1CC/C(COC(=O)NCc1ccccc1OC)=C\CC[C@@]1(C)O[C@@H]21
GI50: 0.669 µM | TGI: 2.8 µM

COc1ccc(C(=O)/C=C/c2ccc(/C=C/c3cc(OC)c(OC)c(OC)c3)cc2)cc1
GI50: 3.39 µM | TGI: 48.7 µM
